From US8258311B2, “Human protein tyrosine phosphatase inhibitors and methods of use” (Aerpio Therapeutics Inc., priority 2006, dated 2012)

Columns and labels:
[1] = test system: hindlimb ischemia; assay: Rat hindlimb model of collateral development: blood flow during treadmill exercise (microspheres); format: in vivo
From the text: The Rat hindlimb model is used to evaluate angiogenic properties of novel HPTPb inhibitors. Specifically to determine if there is enhanced blood flow to the collateral dependent region of the leg post ischemia when the animal is in an exercise challenged state. […] An initial surgery is done to create hindlimb ischemia and implant osmotic pumps essentially as previously described with minor alterations. […] Following induction, animals are transferred to a surgical mat and anesthesia is continued via a non-rebreathing circuit. A warming lamp is positioned above the rat and a rectal probe is placed to monitor the animal's body temperature. The groin areas bilaterally are clipped and prepared with alternating Betadine and alcohol scrubs (3×) and a sterile drape is placed over the rat. The left femoral artery is exposed through a skin incision and subsequently ligated in two positions 1 cm apart; distal to the inguinal ligament and proximal to the femoral circumflex artery. The skin is closed using either skin staples or Vetbond. The same procedure is repeated on the right side. […] Prior to implantation, osmotic pumps are filled with VEGF165 solution at a dose of 15 μg/kg/day, and primed overnight inside sterile saline beakers in a water bath (37° C.). Stretched PESO catheters coated with PPG (Poly propylene glycol Aldrich # 20-235-5) are attached using sterile technique and in accordance with manufacture's instructions the afternoon prior to surgery. For pump placement, an incision is made to expose the right jugular vein, an area is tunneled SubQ from the right side of the neck to the back and the pump is placed in the resulting SubQ pocket. The vessel is ligated with 4-0 silk, a cut is made in the vessel just distal to the tie and the catheter from the osmotic pump is threaded down stream (approx 2 cm) and secured with a second tie. The skin is closed in the same manner as above. Two weeks after the ligation surgery the rat underwent a second acute surgery to place indwelling catheters for microsphere measurements. Rats are anesthetized as described above. The animal is clipped, prepped, and EMLA cream is applied to each entry site. First an incision is made longitudinally at the ventral base of the tail using a 10 blade. A tapered PE 50 catheter is inserted approximately 3 cm into the ventral tail artery and anchored into place. The end of the catheter is then wrapped around the tail and tunneled SubQ over the back, exiting between the shoulder blades. Following tail artery cannulation, a midline neck incision is made to expose the left carotid artery for occlusive cannulation. A tapered PE 50 catheter is placed 3 cm into the carotid and the distal end is tunneled SubQ, exiting between the shoulder blades. The neck is closed with either skin stables or Vetbond and EMLA cream is applied. The exit site is closed around the catheters with a purse string suture stitch. The ends of the catheters are cauterized shut and the rat is allowed to recover from anesthesia for at least 4 hours. For blood flow measurements, rats are placed onto the treadmill and the catheters are connected to extension tubing via 22 gage male-male connectors. For microsphere withdrawals and blood pressure measurements, the tail artery catheter is connected to a syringe (coated with tween and heparin-), which is “T” Ed to a withdrawal pump and a pressure transducer. The carotid catheter is used for injecting the microspheres. The rat began running at speed 20 m/min and an elevation of 7°. […] The pump is set to stop at 90 seconds. The […] stopped, the extension lines are replaced and the animal's lines are flushed, and the animal allowed to rest. The syringe and lines are removed from the pump and the reference blood sample is place in a labeled tube for processing. […] At the completion of the second run, the animal is euthanized with 0.3 ml of Buthaneasia. Following euthanasia, tissues are removed, trimmed, weighed, recorded, and placed in marked tubes for processing. […]

[2] = biological target: HPTPβ (Homo sapiens, UniProt P23467); assay: HPTPβ inhibition (IC50); format: biochemical
[3] = biological target: T1, PTP1B (Homo sapiens, UniProt P18031); assay: PTP1B inhibition (IC50); format: biochemical
T1 sequence (P18031 1-435): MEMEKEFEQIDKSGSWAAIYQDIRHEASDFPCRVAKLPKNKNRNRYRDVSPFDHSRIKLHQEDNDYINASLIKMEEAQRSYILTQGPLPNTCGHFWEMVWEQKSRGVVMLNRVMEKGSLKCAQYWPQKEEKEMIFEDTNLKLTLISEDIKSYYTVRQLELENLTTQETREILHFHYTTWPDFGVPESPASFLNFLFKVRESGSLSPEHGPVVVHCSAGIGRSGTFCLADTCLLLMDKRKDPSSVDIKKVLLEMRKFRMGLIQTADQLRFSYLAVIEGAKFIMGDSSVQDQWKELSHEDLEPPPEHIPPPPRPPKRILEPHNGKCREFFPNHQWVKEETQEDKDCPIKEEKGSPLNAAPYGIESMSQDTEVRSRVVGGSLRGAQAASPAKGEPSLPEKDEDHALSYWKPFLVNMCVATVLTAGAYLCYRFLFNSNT

Sequence of HPTPβ (P23467 23-1997): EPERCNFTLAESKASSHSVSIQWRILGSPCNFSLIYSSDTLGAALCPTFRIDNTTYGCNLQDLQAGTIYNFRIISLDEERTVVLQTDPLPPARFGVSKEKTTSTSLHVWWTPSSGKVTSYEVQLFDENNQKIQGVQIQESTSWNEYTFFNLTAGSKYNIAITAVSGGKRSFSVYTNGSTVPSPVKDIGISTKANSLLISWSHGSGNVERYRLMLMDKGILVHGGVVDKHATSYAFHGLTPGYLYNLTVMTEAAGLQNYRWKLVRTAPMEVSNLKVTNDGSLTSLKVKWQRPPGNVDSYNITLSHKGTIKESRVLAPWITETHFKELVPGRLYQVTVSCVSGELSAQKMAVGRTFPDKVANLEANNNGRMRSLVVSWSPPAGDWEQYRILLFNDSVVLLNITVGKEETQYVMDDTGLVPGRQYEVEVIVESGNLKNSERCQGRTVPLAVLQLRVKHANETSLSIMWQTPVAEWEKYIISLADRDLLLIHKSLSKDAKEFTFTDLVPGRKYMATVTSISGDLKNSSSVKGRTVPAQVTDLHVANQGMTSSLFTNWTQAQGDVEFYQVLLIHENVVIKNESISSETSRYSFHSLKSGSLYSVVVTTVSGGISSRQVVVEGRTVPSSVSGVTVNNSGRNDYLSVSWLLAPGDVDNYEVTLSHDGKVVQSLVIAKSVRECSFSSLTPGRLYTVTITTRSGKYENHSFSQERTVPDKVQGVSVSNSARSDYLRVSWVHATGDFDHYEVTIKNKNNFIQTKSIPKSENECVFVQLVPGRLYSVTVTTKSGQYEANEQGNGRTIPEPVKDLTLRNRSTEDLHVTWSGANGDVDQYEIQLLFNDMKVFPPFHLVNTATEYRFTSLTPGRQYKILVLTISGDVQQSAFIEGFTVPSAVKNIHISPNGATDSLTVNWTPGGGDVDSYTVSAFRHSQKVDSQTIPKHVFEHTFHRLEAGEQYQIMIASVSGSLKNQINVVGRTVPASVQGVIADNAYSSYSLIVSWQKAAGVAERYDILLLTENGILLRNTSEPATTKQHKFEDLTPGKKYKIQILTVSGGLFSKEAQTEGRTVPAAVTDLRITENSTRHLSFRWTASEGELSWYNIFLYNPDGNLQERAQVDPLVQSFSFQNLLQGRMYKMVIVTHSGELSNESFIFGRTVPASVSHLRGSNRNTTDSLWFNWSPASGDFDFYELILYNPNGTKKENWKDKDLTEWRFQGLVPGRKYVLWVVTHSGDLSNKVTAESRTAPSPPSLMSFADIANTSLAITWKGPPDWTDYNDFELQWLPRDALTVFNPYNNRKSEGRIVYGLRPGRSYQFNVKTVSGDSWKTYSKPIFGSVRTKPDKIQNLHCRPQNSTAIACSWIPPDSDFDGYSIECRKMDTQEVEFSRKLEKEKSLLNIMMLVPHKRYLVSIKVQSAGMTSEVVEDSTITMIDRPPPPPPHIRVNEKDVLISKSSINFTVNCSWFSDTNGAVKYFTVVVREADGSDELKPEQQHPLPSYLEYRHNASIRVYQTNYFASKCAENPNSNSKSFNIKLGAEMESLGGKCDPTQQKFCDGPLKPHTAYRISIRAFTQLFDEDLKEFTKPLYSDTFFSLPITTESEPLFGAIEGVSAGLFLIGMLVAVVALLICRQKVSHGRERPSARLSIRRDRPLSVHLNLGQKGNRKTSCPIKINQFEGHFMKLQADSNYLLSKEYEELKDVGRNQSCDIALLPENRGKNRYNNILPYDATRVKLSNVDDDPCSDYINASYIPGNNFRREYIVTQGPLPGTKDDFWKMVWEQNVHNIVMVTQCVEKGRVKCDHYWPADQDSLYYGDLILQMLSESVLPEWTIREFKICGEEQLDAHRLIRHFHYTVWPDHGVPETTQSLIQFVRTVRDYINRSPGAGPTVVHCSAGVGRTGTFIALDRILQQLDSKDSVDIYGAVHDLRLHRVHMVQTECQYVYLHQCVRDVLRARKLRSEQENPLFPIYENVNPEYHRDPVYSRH

Row | Compound | Blood Flow During exercise Calf (GPS) ([1]; VEGF 15 μg/kg/d, mean ± SE) [ml/min/100 g] | GPS blood flow over the Vehicle control groups ([1]; VEGF treatment groups) | IC50 [2] [nM] | IC50 [3] [nM]
1 | VEGF | 76 ± 1.1 | significant improvement | – | –
2 | COC(=O)N[C@@H](Cc1ccccc1)C(=O)N[C@@H](Cc1ccc(NS(=O)(=O)O)cc1)c1nc2c(s1)CCC2 [4-{(S)-2-(5,6-Dihydro-4H-cyclopenta[d]thiazol-2-yl)-2-[(S)-2-(methoxycarbonylamino)-3-phenylpropanamido]ethyl}phenylsulfamic acid] | – | – | 1 | 180
3 | CCCc1csc([C@H](Cc2ccc(NS(=O)(=O)O)cc2)NC(=O)[C@H](Cc2ccccc2)NC(=O)OC)n1 [4-{(S)-2-[(S)-2-(Methoxycarbonylamino)-3-phenylpropanamido]-2-(4-propylthiazol-2-yl)ethyl}phenylsulfamic acid] | – | – | 0.1 | 1030
4 | CCOC(=O)c1csc([C@H](Cc2ccc(NS(=O)(=O)O)cc2)NC(=O)[C@H](Cc2ccccc2)NC(=O)OC)n1 [4-{(S)-2-(4-(Ethoxycarbonyl)thiazol-2-yl)-2-[(S)-2-(methoxy-carbonylamino)-3-phenylpropanamido]ethyl}phenylsulfamic acid] | – | – | 0.2 | 70
5 | CC(C)(C)OC(=O)N[C@@H](Cc1ccc(NS(=O)(=O)O)cc1)c1ncc(-c2ccccc2)s1 [(S)-4-(2-(tert-Butoxycarbonylamino)-2-(5-phenylthiazol-2-yl)ethyl)-phenyl sulfamic acid] | – | – | 308 | 11400
6 | CCc1csc([C@H](Cc2ccc(NS(=O)(=O)O)cc2)NC(=O)[C@@H](Cc2ccccc2)NC(=O)OC(C)(C)C)n1 [4-{(S)-2-[(R)-2-(tert-butoxycarbonylamino)-3-phenylpropanamido]-2-(4-ethylthiazol-2-yl)ethyl}phenylsulfamic acid] | – | – | 4 | 7120
7 | CC(C)(C)OC(=O)N[C@@H](Cc1ccc(NS(=O)(=O)O)cc1)c1nc(-c2ccccc2)cs1 [[1-(S)-(Phenylthiazol-2-yl)-2-(4-sulfoaminophenyl)ethyl]-carbamic acid tert-butyl ester] | – | – | 49 | 33000
8 | CCc1nc([C@H](Cc2ccc(NS(=O)(=O)O)cc2)NC(=O)[C@H](Cc2ccccc2)NC(=O)OC)cs1 [4-{(S)-2-[(S)-2-(Methoxycarbonylamino)-3-phenylpropanamido]-2-(2-ethylthiazol-4-yl)ethyl}phenylsulfamic acid] | – | – | 0.1 | 1010
9 | COC(=O)N[C@@H](Cc1ccccc1)C(=O)N[C@@H](Cc1ccc(NS(=O)(=O)O)cc1)c1csc(CS(=O)(=O)c2ccc(Cl)cc2)n1 [4-{(S)-2-{2-[(4-Chlorophenylsulfonyl)methyl]thiazol-4-yl}-2-[(S)-2-(methoxycarbonylamino)-3-phenylpropanamido]ethyl}phenylsulfamic acid] | – | – | 0.08 | 2540
10 | CC(C)(C)C(=O)N[C@@H](Cc1ccc(NS(=O)(=O)O)cc1)c1nc(-c2ccccc2)cs1 [(S)-4-(2-(4-Phenylthiazol-2-yl)-2-pivalamidoethyl)phenylsulfamic acid] | – | – | 42 | 82300
11 | Cc1sc([C@H](Cc2ccc(NS(=O)(=O)O)cc2)NC(=O)C(C)(C)C)nc1-c1ccccc1 [(S)-4-(2-(5-Methyl-4-phenylthiazol-2-yl)-2-pivalamidoethyl)phenylsulfamic acid] | – | – | 98 | 50500
12 | COC(=O)N[C@@H](Cc1ccccc1)C(=O)N[C@@H](Cc1ccc(NS(=O)(=O)O)cc1)c1nccs1 [4-{(S)-2-[(S)-2-(Methoxycarbonylamino)-3-phenylpropanamido]-2-(thiazol-2-yl)ethyl}phenylsulfamic acid] | – | – | 6 | 1020
13 | COC(=O)N[C@@H](Cc1ccccc1)C(=O)N[C@@H](Cc1ccc(NS(=O)(=O)O)cc1)c1nc(C(C)(C)C)cs1 [4-{(S)-2-(4-tert-Butylthiazol-2-yl)-2-[(S)-2-(methoxycarbonylamino)-3-phenylpropanamido]ethyl}phenylsulfamic acid] | – | – | 0.2 | 708
14 | CCc1csc([C@H](Cc2ccc(NS(=O)(=O)O)cc2)NC(=O)[C@H](CC(C)C)NC(=O)OC(C)(C)C)n1 [4-{(S)-2-[(S)-2-(tert-Butoxycarbonylamino)-4-methylpentanamido]-2-(4-ethylthiazol-2-yl)ethyl}phenylsulfamic acid] | – | – | 1 | 480
